Measurements published in PMC12403558, “Novel enzymes involved in the biotransformation of oxytetracycline by Arthrobacter nicotianae OTC-16” (Microbiology Spectrum, 2025).

Tests used:
[1] = target: T1, uaZ (Glutamicibacter nicotianae, UniProt A0ABQ0RHS3); assay: OTC depletion by HPLC after adding […] mg expressed protein extract; type: biochemical; settings: LB broth without strain OTC-16, 30 C, 180 rpm, 4 days, product not identified, not described as purified
T1 construct: gene ANI01nite_05670; E. coli BL21(DE3) soluble extract, no purification described; about 34 kDa; primers encode N-term MTTEITAPAD, C-term IWANIPAFI

[2] = target: T2, prpD (Glutamicibacter nicotianae, UniProt A0ABQ0RQ59); assay: as above; type: biochemical; settings: LB broth without strain OTC-16, 30 C, 180 rpm, 4 days, product not identified, not described as purified
T2 construct: gene ANI01nite_31520; E. coli BL21(DE3) soluble extract, no purification described; about 55 kDa; primers encode N-term MINHPVR, C-term PKGLF
T2 sequence (A0ABQ0RQ59 entry or part of it): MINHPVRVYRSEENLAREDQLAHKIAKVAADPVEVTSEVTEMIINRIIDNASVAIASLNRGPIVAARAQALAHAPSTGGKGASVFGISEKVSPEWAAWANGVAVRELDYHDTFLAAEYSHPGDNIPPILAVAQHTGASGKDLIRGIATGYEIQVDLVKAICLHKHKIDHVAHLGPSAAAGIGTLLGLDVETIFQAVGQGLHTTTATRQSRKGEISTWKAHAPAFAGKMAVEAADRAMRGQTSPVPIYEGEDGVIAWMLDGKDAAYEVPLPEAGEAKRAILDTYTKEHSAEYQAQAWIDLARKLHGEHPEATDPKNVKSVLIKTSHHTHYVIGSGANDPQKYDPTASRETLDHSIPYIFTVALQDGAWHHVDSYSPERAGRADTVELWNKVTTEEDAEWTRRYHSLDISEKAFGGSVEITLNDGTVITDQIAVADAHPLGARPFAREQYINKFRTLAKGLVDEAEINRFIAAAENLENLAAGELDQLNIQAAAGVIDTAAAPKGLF

T1 sequence (A0ABQ0RHS3 entry or part of it): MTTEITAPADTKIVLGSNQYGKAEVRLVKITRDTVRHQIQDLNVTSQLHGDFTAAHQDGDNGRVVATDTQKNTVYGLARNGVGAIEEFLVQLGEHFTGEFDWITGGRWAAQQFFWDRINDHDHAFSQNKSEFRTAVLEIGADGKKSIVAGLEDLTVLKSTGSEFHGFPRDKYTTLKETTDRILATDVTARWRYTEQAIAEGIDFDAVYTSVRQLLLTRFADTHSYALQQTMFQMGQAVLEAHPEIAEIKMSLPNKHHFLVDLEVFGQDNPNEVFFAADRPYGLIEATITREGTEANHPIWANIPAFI

Question: How did the “OTC depletion by HPLC after adding 0.1 mg expressed protein extract” value [1] turn out when `CN(C)[C@@H]1C(=O)C(C(N)=O)=C(O)[C@@]2(O)C(=O)C3=C(O)c4c(O)cccc4[C@@](C)(O)[C@H]3[C@H](O)[C@@H]12` [oxytetracycline] was run?
Answer: The value was “the degradation proteins prpD and uaZ exhibited degradation effects on OTC”.

Question: What about the “OTC depletion by HPLC after adding 0.1 mg expressed protein extract” value [2] of the same compound?
Answer: Its value is “the degradation proteins prpD and uaZ exhibited degradation effects on OTC”.
